Laboratory results as given in ChEMBL document CHEMBL1122552, “Synthesis and biological evaluation of 6-amino-1H-pyrrolo[3,2-c]pyridin-4(5H)-one (3,7-dideazaguanine)” (1984).
≈ marks a conversion by molar mass, not a printed value.

tested on: Vaccinia virus; assay: The minimum inhibitory concentration required to reduce vaccinia virus induced cytopathogenicity in primary rabbit kidney cells by 50%; format: functional; conditions: Orthopoxvirus vaccinia

SMILES	MIC
NC(=O)c1ncn([C@@H]2O[C@H](CO)[C@@H](O)[C@H]2O)n1 [RIBAVIRIN]	40 mg/L (≈ 164 µM)
Nc1ncnc2c1ncn2C[C@H](O)CO [(S)-DHPA]	10 mg/L (≈ 47.8 µM)
Nc1cc2[nH]cnc2c(=O)[nH]1 [DEZAGUANINE]	0.1 mg/L (≈ 0.666 µM)
Nc1cc2[nH]ccc2c(O)n1	400 mg/L (≈ 2680 µM)
